# Results from patent US20140024527A1, “HERBICIDAL PYRAZINONES” (E I DU DE NEMOURS AND COMPANY, priority 2011, published 2014).
# Tests used:
# Assay in all cases: Test B postemergence
# Format in all cases: in vivo
# Settings in all cases: scale 0 to 100
# [1] = tested on: woolly cupgrass (Eriochloa villosa)
# Excerpt: (§1) Seeds of plant species selected from blackgrass (Alopecurus myosuroides), downy bromegrass (Bromus tectorum), green foxtail (Setaria viridis), Italian ryegrass (Lolium multiflorum), wheat (Triticum aestivum), wild oat (Avena fatua), galium (Galium aparine), bermudagrass (Cynodon dactylon), Surinam grass (Brachiaria decumbens), cocklebur (Xanthium strumarium), corn (Zea mays), large crabgrass (Digitaria sanguinalis), woolly cupgrass (Eriochloa villosa), giant foxtail (Setaria faberii), goosegrass (Eleusine indica), johnsongrass (Sorghum halepense), kochia (Kochia scoparia), lambsquarters (Chenopodium album), morningglory (Ipomoea coccinea), yellow nutsedge (Cyperus esculentus), pigweed (Amaranthus retroflexus), ragweed (Ambrosia elatior), soybean (Glycine max), velvetleaf (Abutilon theophrasti), barley (Hordeum vulgare), canarygrass (Phalaris minor), chickweed (Stellaria media), deadnettle (Lamium amplexicaule) and windgrass (Apera spica-venti) were planted in pots containing Redi-Earth® planting medium (Scotts Company, Marysville, Ohio, USA) comprising spaghnum peat moss, vermiculite, wetting agent and starter nutrients and treated postemergence with test compounds formulated in a non-phytotoxic solvent mixture which included a surfactant. Plants ranged in height from 2 to 18 cm (1- to 4-leaf stage).
# (§2) Treated plants and controls were maintained in a greenhouse for 13 to 15 days, after which time all species were compared to controls and visually evaluated. Plant response ratings, summarized in Table B, are based on a scale of 0 to 100 where 0 is no effect and 100 is complete control. A dash (-) response means no test result.
# [2] = tested on: windgrass (Apera spica-venti)
# Excerpt: as §1, §2
# [3] = tested on: cocklebur (Xanthium strumarium)
# Excerpt: as §1, §2
# [4] = tested on: canarygrass (Phalaris minor)
# Excerpt: as §1, §2
# [5] = tested on: large crabgrass (Digitaria sanguinalis)
# Excerpt: as §1, §2
# [6] = tested on: kochia (Kochia scoparia)
# Excerpt: as §1, §2
# [7] = tested on: deadnettle (Lamium amplexicaule)
# Excerpt: as §1, §2
# [8] = tested on: downy bromegrass (Bromus tectorum)
# Excerpt: as §1, §2
# [9] = tested on: giant foxtail (Setaria faberii)
# Excerpt: as §1, §2
# [10] = tested on: chickweed (Stellaria media)
# Excerpt: as §1, §2
# [11] = tested on: yellow nutsedge (Cyperus esculentus)
# Excerpt: as §1, §2
# [12] = tested on: Surinam grass (Brachiaria decumbens)
# Excerpt: as §1, §2
# [13] = tested on: blackgrass (Alopecurus myosuroides)
# Excerpt: as §1, §2
# [14] = tested on: corn (Zea mays)
# Excerpt: as §1, §2
# [15] = tested on: goosegrass (Eleusine indica)
# Excerpt: as §1, §2
# [16] = tested on: wild oat (Avena fatua)
# Excerpt: as §1, §2
# [17] = tested on: ragweed (Ambrosia elatior)
# Excerpt: as §1, §2
# [18] = tested on: Italian ryegrass (Lolium multiflorum)
# Excerpt: as §1, §2
# [19] = tested on: velvetleaf (Abutilon theophrasti)
# Excerpt: as §1, §2
# [20] = tested on: galium (Galium aparine)
# Excerpt: as §1, §2
# [21] = tested on: bermudagrass (Cynodon dactylon)
# Excerpt: as §1, §2
# [22] = tested on: pigweed (Amaranthus retroflexus)
# Excerpt: as §1, §2
# [23] = tested on: barley (Hordeum vulgare)
# Excerpt: as §1, §2
smiles,measurement,setting,value
"COCCn1c(-c2cc(F)cc(F)c2)c(Cl)nc(C(=O)C2=C(O)CCCC2=O)c1=O [Compound 6, 5-chloro-6-(3,5-difluorophenyl)-3-[(2-hydroxy-6-oxo-1-cyclohexen-1-yl)carbonyl]-1-(2-methoxyethyl)-2(1H)-pyrazinone]","Plant response rating, Cupgrass, Woolly",[1]; 31 g ai/ha,90
same,"Plant response rating, Cupgrass, Woolly",[1]; 62 g ai/ha,100
same,"Plant response rating, Cupgrass, Woolly",[1]; 125 g ai/ha,100
same,"Plant response rating, Cupgrass, Woolly",[1]; 250 g ai/ha,100
same,"Plant response rating, Windgrass",[2]; 31 g ai/ha,60
same,"Plant response rating, Windgrass",[2]; 62 g ai/ha,75
same,"Plant response rating, Windgrass",[2]; 125 g ai/ha,80
same,"Plant response rating, Windgrass",[2]; 250 g ai/ha,80
same,"Plant response rating, Cocklebur",[3]; 31 g ai/ha,50
same,"Plant response rating, Cocklebur",[3]; 62 g ai/ha,75
same,"Plant response rating, Cocklebur",[3]; 125 g ai/ha,95
same,"Plant response rating, Cocklebur",[3]; 250 g ai/ha,100
same,"Plant response rating, Canarygrass",[4]; 31 g ai/ha,55
same,"Plant response rating, Canarygrass",[4]; 62 g ai/ha,55
same,"Plant response rating, Canarygrass",[4]; 125 g ai/ha,70
same,"Plant response rating, Canarygrass",[4]; 250 g ai/ha,90
same,"Plant response rating, Crabgrass, Large",[5]; 31 g ai/ha,75
same,"Plant response rating, Crabgrass, Large",[5]; 62 g ai/ha,85
same,"Plant response rating, Crabgrass, Large",[5]; 125 g ai/ha,95
same,"Plant response rating, Crabgrass, Large",[5]; 250 g ai/ha,98
same,"Plant response rating, Kochia",[6]; 31 g ai/ha,5
same,"Plant response rating, Kochia",[6]; 62 g ai/ha,40
same,"Plant response rating, Kochia",[6]; 125 g ai/ha,40
same,"Plant response rating, Kochia",[6]; 250 g ai/ha,45
same,"Plant response rating, Deadnettle",[7]; 31 g ai/ha,85
same,"Plant response rating, Deadnettle",[7]; 62 g ai/ha,85
same,"Plant response rating, Deadnettle",[7]; 125 g ai/ha,85
same,"Plant response rating, Deadnettle",[7]; 250 g ai/ha,100
same,"Plant response rating, Bromegrass, Downy",[8]; 31 g ai/ha,15
same,"Plant response rating, Bromegrass, Downy",[8]; 62 g ai/ha,35
same,"Plant response rating, Bromegrass, Downy",[8]; 125 g ai/ha,50
same,"Plant response rating, Bromegrass, Downy",[8]; 250 g ai/ha,60
same,"Plant response rating, Foxtail, Giant",[9]; 31 g ai/ha,65
same,"Plant response rating, Foxtail, Giant",[9]; 62 g ai/ha,65
same,"Plant response rating, Foxtail, Giant",[9]; 125 g ai/ha,80
same,"Plant response rating, Foxtail, Giant",[9]; 250 g ai/ha,95
same,"Plant response rating, Chickweed",[10]; 31 g ai/ha,10
same,"Plant response rating, Chickweed",[10]; 62 g ai/ha,25
same,"Plant response rating, Chickweed",[10]; 125 g ai/ha,55
same,"Plant response rating, Chickweed",[10]; 250 g ai/ha,75
same,"Plant response rating, Nutsedge, Yellow",[11]; 31 g ai/ha,40
same,"Plant response rating, Nutsedge, Yellow",[11]; 62 g ai/ha,45
same,"Plant response rating, Nutsedge, Yellow",[11]; 125 g ai/ha,80
same,"Plant response rating, Nutsedge, Yellow",[11]; 250 g ai/ha,80
same,"Plant response rating, Surinam Grass",[12]; 31 g ai/ha,75
same,"Plant response rating, Surinam Grass",[12]; 62 g ai/ha,75
same,"Plant response rating, Surinam Grass",[12]; 125 g ai/ha,85
same,"Plant response rating, Surinam Grass",[12]; 250 g ai/ha,98
same,"Plant response rating, Blackgrass",[13]; 31 g ai/ha,50
same,"Plant response rating, Blackgrass",[13]; 62 g ai/ha,55
same,"Plant response rating, Blackgrass",[13]; 125 g ai/ha,60
same,"Plant response rating, Blackgrass",[13]; 250 g ai/ha,60
same,"Plant response rating, Corn",[14]; 31 g ai/ha,45
same,"Plant response rating, Corn",[14]; 62 g ai/ha,45
same,"Plant response rating, Corn",[14]; 125 g ai/ha,65
same,"Plant response rating, Corn",[14]; 250 g ai/ha,80
same,"Plant response rating, Goosegrass",[15]; 31 g ai/ha,75
same,"Plant response rating, Goosegrass",[15]; 62 g ai/ha,80
same,"Plant response rating, Goosegrass",[15]; 125 g ai/ha,95
same,"Plant response rating, Goosegrass",[15]; 250 g ai/ha,98
same,"Plant response rating, Oat, Wild",[16]; 31 g ai/ha,10
same,"Plant response rating, Oat, Wild",[16]; 62 g ai/ha,40
same,"Plant response rating, Oat, Wild",[16]; 125 g ai/ha,40
same,"Plant response rating, Oat, Wild",[16]; 250 g ai/ha,90
same,"Plant response rating, Ragweed",[17]; 31 g ai/ha,40
same,"Plant response rating, Ragweed",[17]; 62 g ai/ha,60
same,"Plant response rating, Ragweed",[17]; 125 g ai/ha,65
same,"Plant response rating, Ragweed",[17]; 250 g ai/ha,98
same,"Plant response rating, Ryegrass, Italian",[18]; 31 g ai/ha,0
same,"Plant response rating, Ryegrass, Italian",[18]; 62 g ai/ha,5
same,"Plant response rating, Ryegrass, Italian",[18]; 125 g ai/ha,15
same,"Plant response rating, Ryegrass, Italian",[18]; 250 g ai/ha,45
same,"Plant response rating, Velvetleaf",[19]; 31 g ai/ha,60
same,"Plant response rating, Velvetleaf",[19]; 62 g ai/ha,65
same,"Plant response rating, Velvetleaf",[19]; 125 g ai/ha,80
same,"Plant response rating, Velvetleaf",[19]; 250 g ai/ha,80
same,"Plant response rating, Galium",[20]; 31 g ai/ha,40
same,"Plant response rating, Galium",[20]; 62 g ai/ha,50
same,"Plant response rating, Galium",[20]; 125 g ai/ha,60
same,"Plant response rating, Galium",[20]; 250 g ai/ha,65
same,"Plant response rating, Bermudagrass",[21]; 31 g ai/ha,5
same,"Plant response rating, Bermudagrass",[21]; 62 g ai/ha,45
same,"Plant response rating, Bermudagrass",[21]; 125 g ai/ha,75
same,"Plant response rating, Bermudagrass",[21]; 250 g ai/ha,95
same,"Plant response rating, Pigweed",[22]; 31 g ai/ha,80
same,"Plant response rating, Pigweed",[22]; 62 g ai/ha,95
same,"Plant response rating, Pigweed",[22]; 125 g ai/ha,98
same,"Plant response rating, Pigweed",[22]; 250 g ai/ha,98
same,"Plant response rating, Barley",[23]; 31 g ai/ha,25
same,"Plant response rating, Barley",[23]; 62 g ai/ha,35
same,"Plant response rating, Barley",[23]; 125 g ai/ha,50
same,"Plant response rating, Barley",[23]; 250 g ai/ha,70
